Data published in ChEMBL document CHEMBL5329203, “Target discovery of bioactive natural products with native-compound-coupled CNBr-activated Sepharose 4B beads (NCCB): Applications, mechanisms and outlooks” (Bioorg Med Chem, 2023).

What was measured:
[1] = target: T1, Latent membrane protein 1 (Human herpesvirus 4 (strain B95-8), UniProt P03230); assay: Binding affinity to Epstein Barr virus LMP1 assessed as dissociation constant; parameters: species or system human gammaherpesvirus 4
T1 sequence (P03230 whole entry): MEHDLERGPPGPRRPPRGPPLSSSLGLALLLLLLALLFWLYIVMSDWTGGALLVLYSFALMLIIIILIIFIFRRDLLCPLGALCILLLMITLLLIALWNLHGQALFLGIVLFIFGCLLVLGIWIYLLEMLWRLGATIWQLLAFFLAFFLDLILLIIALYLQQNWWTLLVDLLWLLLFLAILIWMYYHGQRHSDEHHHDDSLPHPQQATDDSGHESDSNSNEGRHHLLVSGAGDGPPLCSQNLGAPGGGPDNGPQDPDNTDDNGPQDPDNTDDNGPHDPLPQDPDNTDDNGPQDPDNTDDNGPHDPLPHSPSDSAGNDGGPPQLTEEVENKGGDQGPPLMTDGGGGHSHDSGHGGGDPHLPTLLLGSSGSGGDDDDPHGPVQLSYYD

[2] = target: Small ribosomal subunit protein uS2 (Homo sapiens, UniProt P08865); assay: Binding affinity to His-tagged Laminin receptor in human A549 cells assessed as dissociation constant by surface plasmon resonance assay
[3] = target: Tyrosine-protein kinase Fyn (Homo sapiens, UniProt P06241); assay: Binding affinity to Fyn (unknown origin) assessed as dissociation constant
Sequence of Tyrosine-protein kinase Fyn (P06241 whole entry): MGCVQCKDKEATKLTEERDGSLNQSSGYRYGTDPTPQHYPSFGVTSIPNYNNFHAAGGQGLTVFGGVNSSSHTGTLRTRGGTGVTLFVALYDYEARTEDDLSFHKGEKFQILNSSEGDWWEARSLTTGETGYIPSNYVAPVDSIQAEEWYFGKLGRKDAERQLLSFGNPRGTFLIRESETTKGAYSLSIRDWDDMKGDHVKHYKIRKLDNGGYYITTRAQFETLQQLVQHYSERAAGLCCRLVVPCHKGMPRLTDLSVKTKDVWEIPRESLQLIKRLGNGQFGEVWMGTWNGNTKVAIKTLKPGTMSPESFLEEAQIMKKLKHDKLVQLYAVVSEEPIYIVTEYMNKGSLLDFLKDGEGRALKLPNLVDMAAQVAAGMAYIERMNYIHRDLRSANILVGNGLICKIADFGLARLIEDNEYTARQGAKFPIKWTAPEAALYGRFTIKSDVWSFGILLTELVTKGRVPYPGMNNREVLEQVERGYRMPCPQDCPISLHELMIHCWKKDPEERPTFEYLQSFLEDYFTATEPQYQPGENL

Q: What does the source list for `O=C(O[C@@H]1Cc2c(O)cc(O)cc2O[C@@H]1c1cc(O)c(O)c(O)c1)c1cc(O)c(O)c(O)c1` [EPIGALOCATECHIN GALLATE]?
A: Kd [1]: 360 nM; Kd [2]: 39.9 nM; Kd [3]: 367 nM
